Laboratory results taken from ChEMBL document CHEMBL1201862, “PubChem BioAssay data set” (2004).
Calls of active or inactive are those of the source.

How the values were obtained:
[1] = miR-122 activators in hepatoma reporter cells, dose response, cell-based, Huh7 psiCHECK-miR122, Renilla luciferase, cherry-picked (AID 651956); format: functional;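 also: huh7 hepatoma cells stably carrying a psiCHECK-2 miR-122 sensor plasmid; renilla luciferase signal reporting endogenous miR-122 activity after 48 h compound exposure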
[2] = molecular target: T1, High affinity choline transporter 1 (Homo sapiens, UniProt Q9GZV3); assay: CHT inhibitors, dose response, cell-based, 5-point CRC, membrane potential dye (AID 504840); format: functional
T1 sequence (Q9GZV3 whole entry): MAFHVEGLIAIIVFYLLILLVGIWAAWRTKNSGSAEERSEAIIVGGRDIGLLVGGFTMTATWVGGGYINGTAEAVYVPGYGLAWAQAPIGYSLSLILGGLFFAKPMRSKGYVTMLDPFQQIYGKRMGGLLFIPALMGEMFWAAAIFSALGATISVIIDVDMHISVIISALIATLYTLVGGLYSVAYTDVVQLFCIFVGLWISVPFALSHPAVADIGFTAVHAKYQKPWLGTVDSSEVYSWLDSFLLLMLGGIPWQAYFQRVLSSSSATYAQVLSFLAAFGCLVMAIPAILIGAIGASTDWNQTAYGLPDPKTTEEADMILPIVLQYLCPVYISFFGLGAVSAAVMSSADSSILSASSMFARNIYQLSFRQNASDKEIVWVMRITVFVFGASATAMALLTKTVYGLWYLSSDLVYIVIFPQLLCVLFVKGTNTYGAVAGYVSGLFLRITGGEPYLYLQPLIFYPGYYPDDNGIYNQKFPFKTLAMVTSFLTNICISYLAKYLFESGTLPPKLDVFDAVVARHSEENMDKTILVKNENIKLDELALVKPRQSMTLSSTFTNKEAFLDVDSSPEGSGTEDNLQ

[3] = molecular target: T2, Corticotropin-releasing factor receptor 2/Corticotropin-releasing factor-binding protein (Homo sapiens, UniProt P24387+Q13324); assay: Dose Response confirmation of uHTS hits for small molecule antagonists of the CRF-binding protein and CRF-R2 receptor complex.; format: functional; details: read-out: IC50_Mean
T2 sequence (Q13324 whole entry): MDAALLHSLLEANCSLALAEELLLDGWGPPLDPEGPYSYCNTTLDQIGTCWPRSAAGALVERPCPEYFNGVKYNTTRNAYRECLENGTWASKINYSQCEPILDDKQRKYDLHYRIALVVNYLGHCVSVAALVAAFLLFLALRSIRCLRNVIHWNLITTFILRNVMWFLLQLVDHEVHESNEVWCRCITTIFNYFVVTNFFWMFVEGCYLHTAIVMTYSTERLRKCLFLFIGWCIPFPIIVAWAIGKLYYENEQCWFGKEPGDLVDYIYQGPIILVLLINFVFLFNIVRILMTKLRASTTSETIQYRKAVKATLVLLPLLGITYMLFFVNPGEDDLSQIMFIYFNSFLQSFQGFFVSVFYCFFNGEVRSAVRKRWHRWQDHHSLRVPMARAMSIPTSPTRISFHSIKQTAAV
T2 sequence (P24387 whole entry): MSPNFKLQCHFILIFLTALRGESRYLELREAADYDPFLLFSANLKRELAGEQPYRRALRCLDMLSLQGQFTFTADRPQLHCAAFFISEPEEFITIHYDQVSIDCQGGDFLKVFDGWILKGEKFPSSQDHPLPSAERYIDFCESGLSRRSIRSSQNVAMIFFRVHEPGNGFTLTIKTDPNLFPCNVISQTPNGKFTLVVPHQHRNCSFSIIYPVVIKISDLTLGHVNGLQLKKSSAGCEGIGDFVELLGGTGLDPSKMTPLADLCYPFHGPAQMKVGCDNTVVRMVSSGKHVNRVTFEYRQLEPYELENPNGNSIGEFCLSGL

[4] = molecular target: T2, Corticotropin-releasing factor receptor 2/Corticotropin-releasing factor-binding protein; assay: activators of CRF receptor 2 with binding protein – uHTS hits, confirmation (AID 602473); format: functional; details: read-out: EC50_Mean
[5] = cytotoxicity toward NIH3T3 fibroblasts, dose response, counter-screen, cell-based, ATP luminescence, mouse fibroblasts (AID 2010); format: functional;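 also: cells exposed to compound for about 90 hours before reading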
[6] = inhibitors of intracellular T. cruzi replication, confirmation, NIH3T3 host cells, beta-gal luminescence (AID 2044); format: functional, cell-based;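 also: intracellular parasites grown in NIH/3T3 mouse fibroblasts as host cells; luminescent beta-galactosidase reporter signal from transgenic T. cruzi replicating inside host cells; inhibitors lower the luminescence signal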
[7] = molecular target: T3, DNA repair protein RAD52 homolog (Homo sapiens, UniProt P43351); format: functional, biochemical
T3 sequence (P43351 whole entry): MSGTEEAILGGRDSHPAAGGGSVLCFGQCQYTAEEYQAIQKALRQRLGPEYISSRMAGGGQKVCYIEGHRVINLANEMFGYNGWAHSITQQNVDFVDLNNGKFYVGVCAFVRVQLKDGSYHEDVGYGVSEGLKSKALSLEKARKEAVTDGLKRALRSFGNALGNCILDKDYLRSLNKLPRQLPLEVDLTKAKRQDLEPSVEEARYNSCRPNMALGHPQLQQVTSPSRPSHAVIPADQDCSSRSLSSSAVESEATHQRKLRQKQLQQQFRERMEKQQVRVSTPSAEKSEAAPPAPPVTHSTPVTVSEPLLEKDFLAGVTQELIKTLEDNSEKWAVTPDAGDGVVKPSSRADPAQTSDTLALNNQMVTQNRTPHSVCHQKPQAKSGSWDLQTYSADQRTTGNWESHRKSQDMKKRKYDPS

[8] = control 3'UTR Renilla luciferase suppression, dose response, counter-screen for Shn3 inhibitor project, cell-based, Clone20-Shn3RL, cherry-picked (AID 624133); format: functional
[9] = Shn3 3'UTR reporter inhibitors, dose response, cell-based, Clone20 osteoblasts, firefly luciferase, cherry-picked (AID 624132); format: functional;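 also: firefly luciferase luminescence from reporter carrying the Shn3 3'UTR in osteoblasts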
[10] = HepG2 cell cytotoxicity, dose response, cytotoxicity control for Shn3 inhibitor project, CellTiter-Glo, cherry-picked (AID 624134); format: functional, cell-based
[11] = C. albicans growth with fluconazole, confirmation, fluorescence, retest (AID 2467); format: functional, cell-based
[12] = NIH-3T3 fibroblast cytotoxicity, dose response, cytotoxicity control, cell-based, fluorescence, Alamar Blue, secondary assay (AID 2327); format: functional;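 also: NIH-3T3 mouse fibroblasts cultured with fluconazole at 8 µg/mL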
[13] = growth suppression of PTEN-null colon cells, dose response, cell-based, HCT116 PTEN knockout (AID 1047); format: functional;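 also: HCT116 colon tumor cells with PTEN knocked out; cells exposed to compound for 60 hours before readout; potency for loss of cell viability measured by luminescence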
[14] = growth suppression of beta-catenin-knockout colon cells, dose response, cell-based, HCT116, human colon tumor (AID 1045); format: functional;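 also: HCT116 colon tumor cells with beta catenin knocked out; cells exposed to compound for 60 hours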
[15] = molecular target: T4, Carboxy-terminal domain RNA polymerase II polypeptide A small phosphatase 1 (Homo sapiens, UniProt Q9GZU7); assay: inhibitors of CTDSP1, concentration-response testing, biochemical assay, absorbance-based, actives from ultra-high-throughput screening (AID 540297); format: functional
T4 sequence (Q9GZU7 whole entry): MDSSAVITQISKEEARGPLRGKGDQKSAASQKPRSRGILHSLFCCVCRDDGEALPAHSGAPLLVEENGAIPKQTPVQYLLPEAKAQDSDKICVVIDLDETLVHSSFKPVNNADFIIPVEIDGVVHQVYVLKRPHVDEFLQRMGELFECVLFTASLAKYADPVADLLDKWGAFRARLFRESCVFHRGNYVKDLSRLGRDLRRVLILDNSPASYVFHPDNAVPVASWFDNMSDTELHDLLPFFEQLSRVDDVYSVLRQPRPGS

Cytochrome P450 2C9 = Cytochrome P450 2C9 (Homo sapiens, UniProt P11712)
Cytochrome P450 2C9, sequence (P11712 whole entry): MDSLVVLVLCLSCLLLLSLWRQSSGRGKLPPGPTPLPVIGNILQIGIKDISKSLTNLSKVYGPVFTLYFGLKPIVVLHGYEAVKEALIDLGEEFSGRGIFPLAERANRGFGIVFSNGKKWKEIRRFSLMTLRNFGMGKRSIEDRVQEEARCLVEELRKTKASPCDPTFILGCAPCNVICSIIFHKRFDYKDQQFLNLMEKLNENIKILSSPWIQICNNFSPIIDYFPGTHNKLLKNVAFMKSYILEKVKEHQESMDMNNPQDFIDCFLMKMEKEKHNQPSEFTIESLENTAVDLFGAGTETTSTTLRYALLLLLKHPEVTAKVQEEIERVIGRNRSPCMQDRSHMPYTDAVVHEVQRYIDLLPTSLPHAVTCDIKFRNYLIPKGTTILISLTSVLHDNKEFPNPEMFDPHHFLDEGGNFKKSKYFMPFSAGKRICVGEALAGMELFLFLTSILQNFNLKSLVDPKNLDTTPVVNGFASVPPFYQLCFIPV

Cytochrome P450 3A4 = Cytochrome P450 3A4 (Homo sapiens, UniProt P08684);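 also: CYP3A4 tested as one member of a cytochrome P450 panel screen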
Cytochrome P450 3A4, sequence (P08684 whole entry): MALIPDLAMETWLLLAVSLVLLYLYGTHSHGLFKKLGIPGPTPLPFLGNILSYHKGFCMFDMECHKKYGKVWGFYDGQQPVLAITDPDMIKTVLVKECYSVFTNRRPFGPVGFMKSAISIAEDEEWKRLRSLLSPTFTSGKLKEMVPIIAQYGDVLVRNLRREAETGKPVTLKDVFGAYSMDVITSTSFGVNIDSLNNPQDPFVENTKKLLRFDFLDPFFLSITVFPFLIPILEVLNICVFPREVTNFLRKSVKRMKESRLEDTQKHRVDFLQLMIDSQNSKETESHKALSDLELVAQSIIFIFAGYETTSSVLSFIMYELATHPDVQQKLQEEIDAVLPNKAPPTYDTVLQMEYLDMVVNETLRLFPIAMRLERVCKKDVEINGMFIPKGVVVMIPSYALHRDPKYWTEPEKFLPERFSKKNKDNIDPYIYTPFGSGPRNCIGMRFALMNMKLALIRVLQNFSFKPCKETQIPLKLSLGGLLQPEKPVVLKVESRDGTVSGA

Cytochrome P450 2D6 = Cytochrome P450 2D6 (Homo sapiens, UniProt P10635);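 also: CYP2D6 member of a cytochrome P450 panel assay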
Cytochrome P450 2D6, sequence (P10635 whole entry): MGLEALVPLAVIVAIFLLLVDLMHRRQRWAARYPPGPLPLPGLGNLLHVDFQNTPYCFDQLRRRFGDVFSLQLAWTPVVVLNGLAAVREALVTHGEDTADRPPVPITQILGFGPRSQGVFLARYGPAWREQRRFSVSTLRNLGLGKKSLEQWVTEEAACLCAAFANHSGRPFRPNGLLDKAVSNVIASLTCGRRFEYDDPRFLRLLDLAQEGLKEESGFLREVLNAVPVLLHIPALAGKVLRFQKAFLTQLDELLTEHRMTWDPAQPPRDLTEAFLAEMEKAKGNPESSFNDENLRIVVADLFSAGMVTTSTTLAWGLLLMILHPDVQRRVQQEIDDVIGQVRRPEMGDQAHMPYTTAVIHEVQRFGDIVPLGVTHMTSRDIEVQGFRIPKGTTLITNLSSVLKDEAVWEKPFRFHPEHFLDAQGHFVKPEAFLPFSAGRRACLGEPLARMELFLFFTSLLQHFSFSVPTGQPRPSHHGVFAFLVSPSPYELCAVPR

C[C@@H]1CN([C@H](C)CO)S(=O)(=O)c2ccc(C3=CCCCC3)cc2O[C@@H]1CN(C)C(=O)Cc1ccncc1
AC50 [1]: 8.26 µM (active)

CC(C)COc1nc2ccccc2nc1N1CCN(C)CC1
IC50 [2]: 15.1 µM (active)

O=C(c1cccc(NS(=O)(=O)c2ccc(F)c(F)c2)c1)N1CCN(C(c2ccccc2)c2ccccc2)CC1
IC50 [3]: > 47.1 µM (inactive)
EC50 [4]: > 53 µM (inactive)

CCOC(=O)N1CCN(C(=O)c2oc3ccc(S(=O)(=O)N4CCCCCC4)cc3c2C)CC1
EC50 [5]: > 60 µM (not active)
EC50 [6]: 2.02 µM (active)
IC50 [2]: 13.2 µM (active)

Cc1cc(N2CCC(N(C)C3CCCC3)CC2)nc2cc(O)ccc12
AC50 [7]: 11.3 µM (active)

COc1ccccc1N1CCN(C(=O)C2CCCN(S(=O)(=O)c3ccc4c(c3)CCCN4C(C)=O)C2)CC1 (stereo not drawn)
AC50 [8]: 1.15 µM (active)
AC50 [9]: 2.68 µM (active)
AC50 [10]: 50.9 µM (active)

Cc1ccc(C2CC2C(=O)NN=C(S)Nc2cccc(Cl)c2)cc1 (stereo not drawn)
EC50 [11]: > 38 µM (not active)
IC50 [2]: 15.8 µM (active)
EC50 [12]: > 160 µM (inactive)

O=C(N/N=C/c1ccccc1OC(=O)c1ccc2c(c1)OCO2)c1ccccc1
EC50 [13]: 20.9 µM (active)
EC50 [14]: 18.9 µM (active)

Cc1ccc(Cl)cc1NC(=O)CSc1sc2c(O)cc(O)nc2c1C#N
IC50 [15]: 4.49 µM (active)

O=C(O)c1cccc2c1C(=O)N(c1ccc3c(c1)Cc1ccccc1-3)C2=O
IC50 [15]: 7.59 µM (active)

O=C(Nc1ccccc1C(F)(F)F)NC1(C(=O)N2CCOCC2)CCCCC1
IC50 [15]: 4.66 µM (active)

CSc1ccc(/C=N/NC(=O)c2cccc(Cl)c2)cc1
IC50 [15]: 13.4 µM (active)

Cc1nc2cnc(Nc3ccccc3)nc2n(C)c1=O
AC50 (Cytochrome P450 2C9): 20 µM (inconclusive)
AC50 (Cytochrome P450 3A4): 15.8 µM (inconclusive)
AC50 (Cytochrome P450 2D6): 39.8 µM (inconclusive)

Nc1ccc(CC(N)c2csc(Nc3ncccn3)n2)cc1 (stereo not drawn)
AC50 [7]: 19.2 µM (active)

CC(C)C[C@@H](CN1CCCC1CN1C(=S)NC[C@@H]1Cc1ccc(O)cc1)N1C[C@H](Cc2ccc(O)cc2)N(CC2CCCCCC2)C1=S (stereo partly drawn)
AC50 [8]: 16.9 µM (active)
AC50 [9]: 18.8 µM (active)
AC50 [10]: 22.7 µM (active)

O=C(CC(CC(=O)c1ccccc1)c1ccncc1)c1ccccc1
IC50 [3]: > 47.1 µM (inactive)
EC50 [4]: > 53 µM (inactive)

C[C@@H]1CN([C@@H](C)CO)C(=O)c2cc(NC(=O)Nc3cccc4ccccc34)ccc2O[C@@H](C)CCCCO[C@H]1CN(C)CC1CCCCC1
AC50 [1]: 8.95 µM (active)

CCCCN(C(=O)c1ccc2c(c1)S(=O)(=O)N=C1CCCCCN12)c1c(N)n(CCCC)c(=O)[nH]c1=O
IC50 [3]: > 47.1 µM (inactive)
EC50 [4]: > 53 µM (inactive)

O=C(N/N=C/c1cc(Cl)cc([N+](=O)[O-])c1O)c1cc(-c2ccccn2)nc2ccccc12
IC50 [15]: 1.85 µM (active)
